Measurements taken from ChEMBL document CHEMBL4725469, “Hydrogen Peroxide Inducible JAK3 Covalent Inhibitor: Prodrug for the Treatment of RA with Enhanced Safety Profile” (ACS Med Chem Lett, 2020).
Activity calls are given as the source filed them. No cut-off for these calls is given here.

What was measured:
[1] = Aqueous solubility of compound at pH 7.4; format: physicochemical; conditions: buffer
[2] = Permeability of compound at pH 7.4 by PAMPA assay; format: ADME; conditions: read-out: permeability
[3] = target: T1, Tyrosine-protein kinase JAK3 (Mus musculus) (UniProt Q62137); assay: Inhibition of JAK3 in mouse BaF3/TEL-JAK3 cells assessed as effect on STAT3 phosphorylation at 0.125 to 2 uM by Western blot analysis; format: cell-based; conditions: dose microM 0.125-2
T1 sequence (whole entry): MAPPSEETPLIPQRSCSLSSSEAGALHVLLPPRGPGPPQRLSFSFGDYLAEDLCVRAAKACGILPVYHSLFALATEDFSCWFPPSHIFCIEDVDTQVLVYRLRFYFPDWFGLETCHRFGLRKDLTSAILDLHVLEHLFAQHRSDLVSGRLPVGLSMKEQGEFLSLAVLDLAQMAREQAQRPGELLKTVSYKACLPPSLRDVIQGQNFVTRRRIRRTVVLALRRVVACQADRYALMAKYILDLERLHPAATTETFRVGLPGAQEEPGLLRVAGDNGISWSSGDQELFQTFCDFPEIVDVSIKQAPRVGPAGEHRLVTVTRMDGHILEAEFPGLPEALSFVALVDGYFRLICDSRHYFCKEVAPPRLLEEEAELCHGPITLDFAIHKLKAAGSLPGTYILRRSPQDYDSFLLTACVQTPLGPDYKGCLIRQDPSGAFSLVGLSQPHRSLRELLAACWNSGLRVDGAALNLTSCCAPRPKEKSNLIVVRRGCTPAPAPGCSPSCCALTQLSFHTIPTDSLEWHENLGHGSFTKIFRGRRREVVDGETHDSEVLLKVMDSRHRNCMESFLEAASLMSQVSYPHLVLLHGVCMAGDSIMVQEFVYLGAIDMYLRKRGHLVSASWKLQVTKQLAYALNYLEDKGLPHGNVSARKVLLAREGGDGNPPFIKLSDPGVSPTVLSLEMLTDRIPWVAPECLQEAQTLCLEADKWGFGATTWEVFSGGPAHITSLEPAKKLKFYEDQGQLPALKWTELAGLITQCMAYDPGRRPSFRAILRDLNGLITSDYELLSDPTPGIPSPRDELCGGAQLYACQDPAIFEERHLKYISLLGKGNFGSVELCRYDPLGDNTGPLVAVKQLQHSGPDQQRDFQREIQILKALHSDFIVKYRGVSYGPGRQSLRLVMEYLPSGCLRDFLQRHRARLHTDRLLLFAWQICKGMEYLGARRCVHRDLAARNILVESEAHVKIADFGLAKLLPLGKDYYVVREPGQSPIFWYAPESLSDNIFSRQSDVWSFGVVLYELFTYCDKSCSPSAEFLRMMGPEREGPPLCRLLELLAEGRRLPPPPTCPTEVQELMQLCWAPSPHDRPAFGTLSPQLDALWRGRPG

[4] = Tmax in Sprague-Dawley rat at 20 mg/kg, ip measured for 0.8 to 24 hrs by LC-MS/MS analysis; format: ADME, organism-based; conditions: in vivo, time 0.8-24 hrs
[5] = AUC in Sprague-Dawley rat at 20 mg/kg, ip measured for 0.8 to 24 hrs by LC-MS/MS analysis; format: ADME, organism-based; design: route intraperitoneal, dose 20 mg/kg, time 0.8-24; conditions: in vivo
[6] = Apparent clearance in Sprague-Dawley rat at 20 mg/kg, ip measured for 0.8 to 24 hrs by LC-MS/MS analysis; format: ADME, organism-based; conditions: in vivo, time 0.8-24 hrs
[7] = Cmax in Sprague-Dawley rat at 20 mg/kg, ip measured for 0.8 to 24 hrs by LC-MS/MS analysis; format: ADME, organism-based; design: route intraperitoneal, dose 20 mg/kg, time 0.8-24; conditions: in vivo
[8] = Toxicity in ICR mouse assessed as inflammatory inflammation in heart at 100 mg/kg, ip administered for 14 days; format: organism-based; conditions: in vivo, 336 h, time 14 day
[9] = Toxicity in ICR mouse assessed as increase in spleen weight at 100 mg/kg, ip administered for 14 days; format: organism-based; conditions: in vivo, 336 h, time 14 day
[10] = Dissociation constant, pKa of the compound; format: physicochemical
[11] = Toxicity in ICR mouse assessed as increase in liver weight at 100 mg/kg, ip administered for 14 days; format: organism-based; conditions: in vivo, 336 h, time 14 day
[12] = Apparent volume of distribution in Sprague-Dawley rat at 20 mg/kg, ip measured for 0.8 to 24 hrs by LC-MS/MS analysis; format: ADME, organism-based; conditions: in vivo, time 0.8-24 hrs
[13] = Half life in Sprague-Dawley rat at 20 mg/kg, ip measured for 0.8 to 24 hrs by LC-MS/MS analysis; format: ADME, organism-based; conditions: in vivo, time 0.8-24 hrs
[14] = MRT (0 to infinity) in Sprague-Dawley rat at 20 mg/kg, ip measured for 0.8 to 24 hrs by LC-MS/MS analysis; format: ADME, organism-based; conditions: in vivo, time 0.8-24 hrs
[15] = Drug level in ankle joint of collagen/complete freund's adjuvant-induced rheumatoid arthritis DBA/1J mouse model at 20 mg/kg, ip by LC-MS/MS analysis; format: ADME, organism-based; conditions: in vivo, read-out: Ct
[16] = Toxicity in ICR mouse assessed as inflammatory inflammation in lungs at 100 mg/kg, ip administered for 14 days; format: organism-based; conditions: in vivo, 336 h, time 14 day
[17] = target: T1, Tyrosine-protein kinase JAK3 (Mus musculus); assay: Inhibition of JAK3 in mouse BaF3/TEL-JAK3 cells assessed as effect on STAT5 phosphorylation at 0.125 to 2 uM by Western blot analysis; format: cell-based; conditions: dose microM 0.125-2
[18] = Toxicity in ICR mouse assessed as effect on body weight at 100 mg/kg, ip administered for 14 days; format: organism-based; conditions: in vivo, 336 h, time 14 day
[19] = test system: Mus musculus; assay: Antiarthritic activity in collagen/complete freund's adjuvant-induced rheumatoid arthritis DBA/1J mouse model assessed as inhibition of feet swelling at 10 mg/kg, ip administered for 14 days by H and E staining based analysis; format: functional, organism-based; conditions: time 14.0 day
[20] = Prodrug activation in collagen/complete freund's adjuvant-induced rheumatoid arthritis DBA/1J mouse model assessed as Z)-2-((5-(1-cyclohexyl-1,6-dihydroimidazo[4,5-d]pyrrolo[2,3-b]pyridin-2-yl)furan-2-yl)(hydroxy)methyl)-3-(dimethylamino)-3-((4-(4,4,5,5-tetramethyl-1,3,2-dioxaborolan-2-yl)benzyl)oxy)acrylonitrile level in ankle joint at […], ip by LC-MS/MS analysis; format: organism-based; conditions: in vivo, 20 mg/kg, read-out: Ct
[21] = test system: Mus musculus; assay: In vivo inhibition of JAK3 in collagen/complete freund's adjuvant-induced rheumatoid arthritis DBA/1J mouse model assessed as effect on STAT5 phosphorylation in spleen at 20 mg/kg, ip administered for 14 days by Western blot analysis; format: functional, organism-based; conditions: time 14.0 day
[22] = Stability in phosphate buffer saline at pH 7.4 after 0.25 to 24 hrs by RP-UPLC-UV analysis; format: physicochemical; conditions: time 0.25-24 hrs
[23] = Stability in simulated gastric fluid measured after 0.25 to 24 hrs by RP-UPLC-UV analysis
[24] = test system: Mus musculus; assay: Antiarthritic activity in collagen/complete freund's adjuvant-induced rheumatoid arthritis DBA/1J mouse model assessed as inhibition of feet swelling at 20 mg/kg, ip administered for 14 days by H and E staining based analysis; format: functional, organism-based; conditions: time 14.0 day
[25] = test system: Mus musculus; assay: Antiarthritic activity in ip dosed collagen/complete freund's adjuvant-induced rheumatoid arthritis DBA/1J mouse model assessed as reduction in G-CSF level in serum administered for 14 days by ELISA; format: functional, organism-based; conditions: dose mg/kg 5-20, time 14.0 day
[26] = test system: Mus musculus; assay: Antiarthritic activity in DBA/1J mouse model assessed as effect on collagen/complete freund's adjuvant-induced synovial hyperplasia at 20 mg/kg, ip administered for 14 days by H and E staining analysis; format: functional, organism-based; conditions: time 14.0 day
[27] = test system: Mus musculus; assay: In vivo inhibition of JAK3 in collagen/complete freund's adjuvant-induced rheumatoid arthritis DBA/1J mouse model assessed as effect on STAT5 phosphorylation in heart at 20 mg/kg, ip administered for 14 days by Western blot analysis; format: functional, organism-based; conditions: time 14.0 day
[28] = test system: Mus musculus; assay: Antiarthritic activity in ip dosed collagen/complete freund's adjuvant-induced rheumatoid arthritis DBA/1J mouse model assessed as reduction in serum amyloid A level administered for 14 days by ELISA; format: functional, organism-based; conditions: dose mg/kg 5-20, time 14.0 day
[29] = test system: Mus musculus; assay: In vivo inhibition of JAK3 in collagen/complete freund's adjuvant-induced rheumatoid arthritis DBA/1J mouse model assessed as effect on STAT5 phosphorylation in kidney at 20 mg/kg, ip administered for 14 days by Western blot analysis; format: functional, organism-based; conditions: time 14.0 day
[30] = Stability in simulated intestinal fluid incubated for 0.25 to 24 hrs by RP-UPLC-UV analysis
[31] = test system: Mus musculus; assay: Antiarthritic activity in DBA/1J mouse model assessed as effect on collagen/complete freund's adjuvant-induced disordered synovial cells in ankle joints at 20 mg/kg, ip administered for 14 days by H and E staining analysis; format: functional, organism-based; conditions: time 14.0 day
[32] = test system: Mus musculus; assay: In vivo inhibition of JAK3 in collagen/complete freund's adjuvant-induced rheumatoid arthritis DBA/1J mouse model assessed as effect on STAT5 phosphorylation in liver at 20 mg/kg, ip administered for 14 days by Western blot analysis; format: functional, organism-based; conditions: time 14.0 day
[33] = test system: Mus musculus; assay: Antiarthritic activity in DBA/1J mouse model assessed as effect on collagen/complete freund's adjuvant-induced eroded synovial cells in ankle joints at 20 mg/kg, ip administered for 14 days by H and E staining analysis; format: functional, organism-based; conditions: time 14.0 day
[34] = Prodrug activation in DMSO assessed as H2O2 mediated prodrug release after 4 hrs in presence of 0.1 uM H2O2 after 4 hrs by RP-HPLC-UV analysis
[35] = test system: Mus musculus; assay: Antiarthritic activity in ip dosed collagen/complete freund's adjuvant-induced rheumatoid arthritis DBA/1J mouse model assessed as reduction in IL-2 level in serum administered for 14 days by ELISA; format: functional, organism-based; conditions: dose mg/kg 5-20, time 14.0 day
[36] = Stability in human plasma at 20 uM after 0.25 to 24 hrs by RP-UPLC-UV analysis; format: ADME, cell-free; conditions: time 0.25-24 hrs, read-out: Stabilty
[37] = test system: Mus musculus; assay: In vivo inhibition of JAK3 in collagen/complete freund's adjuvant-induced rheumatoid arthritis DBA/1J mouse model assessed as effect on STAT5 phosphorylation in lung at 20 mg/kg, ip administered for 14 days by Western blot analysis; format: functional, organism-based; conditions: time 14.0 day
[38] = test system: Mus musculus; assay: Antiarthritic activity in ip dosed collagen/complete freund's adjuvant-induced rheumatoid arthritis DBA/1J mouse model assessed as inhibition of feet swelling administered for 14 days by H and E staining based analysis; format: functional, organism-based; conditions: dose mg/kg 5-20, time 14.0 day
[39] = Stability in mouse plasma at 20 uM after 0.25 to 24 hrs by RP-UPLC-UV analysis; format: ADME, cell-free; conditions: time 0.25-24 hrs, read-out: Stabilty

SMILES	solubility [1]	Papp [2]	inhibition [3]	Tmax [4]	AUC [5]	CL(app) [6]	Cmax [7]	Activity [9]	pKa [10]	Activity [11]	Vz [12]	t1/2 [13]	MRT inf [14]	concentration [15]	inhibition [17]	Activity [18]	also measured
CN(C)C(=O)/C(C#N)=C/c1ccc(-c2nc3cnc4[nH]ccc4c3n2C2CCCCC2)o1	0.719 mg/kg	14.7 ×10⁻⁶ cm/s	Active	10.2 min	331.91 µg·h/mL	6.02 L/h/kg	455.37 µg/L	Toxic	10.1	Toxic	27.96 L/kg	2.36 h	3.84 h	1070 nM	Active	Toxic	Activity [8]: Toxic; Activity [16]: Toxic; inhibition [19]: Active
CN(C)/C(OCc1ccc(B2OC(C)(C)C(C)(C)O2)cc1)=C(\C#N)C(O)c1ccc(-c2nc3cnc4[nH]ccc4c3n2C2CCCCC2)o1 (stereo not given)	0.011 mg/kg	56.4 ×10⁻⁶ cm/s	Active	15 min	963.5 µg·h/mL	2.1 L/h/kg	983.33 µg/L	Non-Toxic	10.7	Non-Toxic	8.7 L/kg	2.92 h	2.38 h	290 nM	Active	Non-Toxic	concentration [20]: 1130 nM; inhibition [21]: inactive; Stabilty [22]: > 95%; Stability [23]: > 95%; inhibition [24]: Active; Activity [25]: Active; Activity [26]: Active; inhibition [27]: inactive; Activity [28]: Active; inhibition [29]: inactive; Stability [30]: > 95%; Activity [31]: Active; inhibition [32]: inactive; Activity [33]: Active; Drug metabolism [34]: Not Active; Activity [35]: Active; remaining at 20 µM [36]: > 95%; inhibition [37]: inactive; inhibition [38]: Dose-dependent effect; remaining at 20 µM [39]: > 95%
